Measurements taken from ChEMBL document CHEMBL4049381 (Medchemcomm, 2016).

Key:
[1] = biological target: T1, Solute carrier organic anion transporter family member 2B1 (Homo sapiens, UniProt O94956); experiment: Drug uptake assessed as OATP2B1 low affinity site (unknown origin)-mediated drug uptake in presence of 1 mM sulfasalazine relative to control; format: ADME
T1 sequence (O94956 whole entry): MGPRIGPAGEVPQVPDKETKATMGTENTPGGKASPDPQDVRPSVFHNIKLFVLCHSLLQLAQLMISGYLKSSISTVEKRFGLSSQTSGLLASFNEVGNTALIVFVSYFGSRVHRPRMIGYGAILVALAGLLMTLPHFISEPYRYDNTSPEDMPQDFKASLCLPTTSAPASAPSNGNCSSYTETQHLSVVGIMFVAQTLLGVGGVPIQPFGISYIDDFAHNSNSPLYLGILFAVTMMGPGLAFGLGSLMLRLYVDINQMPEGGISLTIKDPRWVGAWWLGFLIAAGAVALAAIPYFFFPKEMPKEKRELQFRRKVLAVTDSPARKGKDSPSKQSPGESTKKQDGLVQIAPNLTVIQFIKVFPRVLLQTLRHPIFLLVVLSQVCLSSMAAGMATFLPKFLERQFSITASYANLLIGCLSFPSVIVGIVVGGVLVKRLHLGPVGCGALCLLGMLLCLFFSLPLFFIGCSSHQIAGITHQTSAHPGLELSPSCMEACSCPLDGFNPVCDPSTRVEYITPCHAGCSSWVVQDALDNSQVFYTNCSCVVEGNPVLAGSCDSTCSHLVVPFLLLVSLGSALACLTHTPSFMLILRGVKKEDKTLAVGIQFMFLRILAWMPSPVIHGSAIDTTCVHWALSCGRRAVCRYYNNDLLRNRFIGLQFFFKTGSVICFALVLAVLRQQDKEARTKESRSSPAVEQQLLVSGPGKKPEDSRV

[2] = biological target: Solute carrier organic anion transporter family member 2B1 (Homo sapiens, UniProt O94956, R607A); experiment: Drug uptake assessed as human OATP2B1 R607A mutant expressed in Xenopus laevis oocyte mediated drug accumulation at 0.005 to 50 uM after 15 mins by LC-MS/MS analysis relative to wild type protein; format: ADME; details: 0.25 h
[3] = biological target: T2, Solute carrier organic anion transporter family member 2B1 (Homo sapiens, UniProt O94956, H618Q); experiment: Drug uptake assessed as human OATP2B1 H618Q mutant expressed in Xenopus laevis oocyte mediated drug accumulation at 0.005 uM after 15 mins by LC-MS/MS analysis relative to wild type protein; format: ADME; details: 0.25 h
[4] = biological target: T1, Solute carrier organic anion transporter family member 2B1; experiment: Substrate activity at human OATP2B1 high affinity site expressed in Xenopus laevis oocytes assessed as Vmax for transporter-mediated drug accumulation per 15 mins per oocyte by Eadie-Hofstee plot method; format: ADME, cell-based; details: 0.25 h
[5] = biological target: T2, Solute carrier organic anion transporter family member 2B1; experiment: Ratio of Vmax to Km for human OATP2B1 H618Q mutant high affinity site expressed in Xenopus laevis oocytes assessed as transporter-mediated drug uptake per 15 mins per oocyte after 15 mins by Eadie-Hofstee plot method; format: ADME, cell-based; details: 0.25 h
[6] = biological target: T1, Solute carrier organic anion transporter family member 2B1; experiment: Drug uptake assessed as human OATP2B1 expressed in Xenopus laevis oocyte mediated drug accumulation per oocyte at 50 uM after 15 mins by LC-MS/MS analysis; format: ADME; details: 0.25 h
[7] = biological target: T1, Solute carrier organic anion transporter family member 2B1; experiment: Drug uptake assessed as OATP2B1 low affinity site (unknown origin)-mediated drug uptake in presence of 1 mM pravastatin relative to control; format: ADME
[8] = tested on: OATP2B1 H618Q/H579Q double mutant, low affinity site; experiment: Substrate activity at human OATP2B1 H618Q/H579Q double mutant low affinity site expressed in Xenopus laevis oocytes assessed as Km for transporter-mediated drug accumulation after 15 mins by Eadie-Hofstee plot method; format: ADME, cell-based
[9] = biological target: T2, Solute carrier organic anion transporter family member 2B1; experiment: Substrate activity at human OATP2B1 H618Q mutant high affinity site expressed in Xenopus laevis oocytes assessed as Vmax for transporter-mediated drug accumulation per 15 mins per oocyte by Eadie-Hofstee plot method; format: ADME, cell-based; details: 0.25 h
[10] = biological target: T1, Solute carrier organic anion transporter family member 2B1; experiment: Ratio of Vmax to Km for human OATP2B1 low affinity site expressed in Xenopus laevis oocytes assessed as transporter-mediated drug uptake per 15 mins per oocyte after 15 mins by Eadie-Hofstee plot method; format: ADME, cell-based; details: 0.25 h
[11] = Ratio of Vmax to Km for human OATP2B1 H618Q/H579Q double mutant low affinity site expressed in Xenopus laevis oocytes assessed as transporter-mediated drug uptake per 15 mins per oocyte after 15 mins by Eadie-Hofstee plot method; format: ADME, cell-based; details: 0.25 h
[12] = Substrate activity at human OATP2B1 H579Q/H618Q double mutant high affinity site expressed in Xenopus laevis oocytes assessed as Vmax for transporter-mediated drug accumulation per 15 mins per oocyte by Eadie-Hofstee plot method; format: ADME, cell-based; details: 0.25 h
[13] = biological target: T2, Solute carrier organic anion transporter family member 2B1; experiment: Substrate activity at human OATP2B1 H618Q mutant low affinity site expressed in Xenopus laevis oocytes assessed as Vmax for transporter-mediated drug accumulation per 15 mins per oocyte by Eadie-Hofstee plot method; format: ADME, cell-based; details: 0.25 h
[14] = biological target: T1, Solute carrier organic anion transporter family member 2B1; experiment: Drug uptake assessed as OATP2B1 high affinity site (unknown origin)-mediated drug uptake in presence of 1 mM pravastatin relative to control; format: ADME
[15] = biological target: T1, Solute carrier organic anion transporter family member 2B1; experiment: Substrate activity at human OATP2B1 low affinity site expressed in Xenopus laevis oocytes assessed as Vmax for transporter-mediated drug accumulation per 15 mins per oocyte by Eadie-Hofstee plot method; format: ADME, cell-based; details: 0.25 h
[16] = biological target: T1, Solute carrier organic anion transporter family member 2B1; experiment: Drug uptake assessed as OATP2B1 high affinity site (unknown origin)-mediated drug uptake in presence of 1 mM sulfasalazine relative to control; format: ADME
[17] = biological target: T2, Solute carrier organic anion transporter family member 2B1; experiment: Ratio of Vmax to Km for human OATP2B1 H618Q mutant low affinity site expressed in Xenopus laevis oocytes assessed as transporter-mediated drug uptake per 15 mins per oocyte after 15 mins by Eadie-Hofstee plot method; format: ADME, cell-based; details: 0.25 h
[18] = biological target: T1, Solute carrier organic anion transporter family member 2B1; experiment: Ratio of Vmax to Km for human OATP2B1 high affinity site expressed in Xenopus laevis oocytes assessed as transporter-mediated drug uptake per 15 mins per oocyte after 15 mins by Eadie-Hofstee plot method; format: ADME, cell-based; details: 0.25 h
[19] = biological target: T2, Solute carrier organic anion transporter family member 2B1; experiment: Drug uptake assessed as human OATP2B1 H618Q mutant expressed in Xenopus laevis oocyte mediated drug accumulation at 0.005 to 50 uM after 15 mins by LC-MS/MS analysis relative to wild type protein; format: ADME; details: 0.25 h
[20] = tested on: OATP2B1 H579Q/H618Q double mutant, high affinity site; experiment: Substrate activity at human OATP2B1 H579Q/H618Q double mutant high affinity site expressed in Xenopus laevis oocytes assessed as Km for transporter-mediated drug accumulation after 15 mins by Eadie-Hofstee plot method; format: ADME, cell-based
[21] = biological target: Solute carrier organic anion transporter family member 2B1 (Homo sapiens, UniProt O94956, H219Q); experiment: Drug uptake assessed as human OATP2B1 H219Q mutant expressed in Xenopus laevis oocyte mediated drug accumulation at 0.005 to 50 uM after 15 mins by LC-MS/MS analysis relative to wild type protein; format: ADME; details: 0.25 h
[22] = biological target: T1, Solute carrier organic anion transporter family member 2B1; experiment: Drug uptake assessed as human OATP2B1 expressed in Xenopus laevis oocyte mediated drug accumulation per oocyte at 0.005 uM after 15 mins by LC-MS/MS analysis; format: ADME; details: 0.25 h
[23] = biological target: T3, Solute carrier organic anion transporter family member 2B1 (Homo sapiens, UniProt O94956, H579Q); experiment: Drug uptake assessed as human OATP2B1 H579Q mutant expressed in Xenopus laevis oocyte mediated drug accumulation at 50 uM after 15 mins by LC-MS/MS analysis relative to wild type protein; format: ADME; details: 0.25 h
[24] = biological target: T3, Solute carrier organic anion transporter family member 2B1; experiment: Drug uptake assessed as human OATP2B1 H579Q mutant expressed in Xenopus laevis oocyte mediated drug accumulation at 0.005 to 50 uM after 15 mins by LC-MS/MS analysis relative to wild type protein; format: ADME; details: 0.25 h
[25] = Substrate activity at human OATP2B1 H618Q/H579Q double mutant low affinity site expressed in Xenopus laevis oocytes assessed as Vmax for transporter-mediated drug accumulation per 15 mins per oocyte by Eadie-Hofstee plot method; format: ADME, cell-based; details: 0.25 h
[26] = Ratio of Vmax to Km for human OATP2B1 H579Q/H618Q double mutant high affinity site expressed in Xenopus laevis oocytes assessed as transporter-mediated drug uptake per 15 mins per oocyte after 15 mins by Eadie-Hofstee plot method; format: ADME, cell-based; details: 0.25 h

T2 sequence (O94956 whole entry T392I/H618Q): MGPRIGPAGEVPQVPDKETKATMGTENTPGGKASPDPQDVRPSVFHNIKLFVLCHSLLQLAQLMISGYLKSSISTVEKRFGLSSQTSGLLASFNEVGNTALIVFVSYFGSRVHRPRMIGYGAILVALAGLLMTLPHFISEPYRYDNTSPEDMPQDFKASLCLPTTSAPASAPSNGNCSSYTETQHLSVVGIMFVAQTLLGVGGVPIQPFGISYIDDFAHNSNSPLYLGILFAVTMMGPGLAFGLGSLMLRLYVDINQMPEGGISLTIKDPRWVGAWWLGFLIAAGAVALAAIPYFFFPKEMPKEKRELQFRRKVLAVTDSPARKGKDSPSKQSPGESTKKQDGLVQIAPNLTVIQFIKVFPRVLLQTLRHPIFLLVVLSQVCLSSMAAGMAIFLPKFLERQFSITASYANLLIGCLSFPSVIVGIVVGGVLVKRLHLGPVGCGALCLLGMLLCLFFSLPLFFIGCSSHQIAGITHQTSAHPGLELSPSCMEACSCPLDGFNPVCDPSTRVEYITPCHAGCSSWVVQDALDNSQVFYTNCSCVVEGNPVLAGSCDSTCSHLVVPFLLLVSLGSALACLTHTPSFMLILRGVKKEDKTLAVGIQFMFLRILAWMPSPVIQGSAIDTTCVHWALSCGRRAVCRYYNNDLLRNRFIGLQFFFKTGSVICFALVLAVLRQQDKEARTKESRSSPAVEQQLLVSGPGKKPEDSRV
T3 sequence (O94956 whole entry T392I/H579Q): as the sequence (O94956 whole entry T392I/H618Q) above, with H579Q, Q618H counted along it
Sequence of Solute carrier organic anion transporter family member 2B1 (Homo sapiens, UniProt O94956, R607A) (O94956 whole entry T392I/R607A): as the sequence (O94956 whole entry T392I/H618Q) above, with R607A, Q618H counted along it
Sequence of Solute carrier organic anion transporter family member 2B1 (Homo sapiens, UniProt O94956, H219Q) (O94956 whole entry H219Q/T392I): as the sequence (O94956 whole entry T392I/H618Q) above, with H219Q, Q618H counted along it

Drug uptake [1]: < 1% | fold change (FC) [2]: < 2 | Drug uptake [3]: 17.8% | Vmax [4]: 0.867 pmol | Vmax/Km [5]: 0.269 µL | Drug uptake [6]: 0.198 µL | Drug uptake [7]: 79% | Km at 0.25 h [8]: 312 µM | Vmax [9]: 0.0402 pmol | Vmax/Km [10]: 0.385 µL | Vmax/Km [11]: 0.0987 µL | Vmax [12]: 0.38 pmol | Vmax [13]: 60 pmol | Drug uptake [14]: 21% | Vmax [15]: 19.8 pmol | Drug uptake [16]: < 1% | Vmax/Km [17]: 0.659 µL | Vmax/Km [18]: 1.87 µL | fold change (FC) [19]: < 2 | Km at 0.25 h [20]: 0.808 µM | fold change (FC) [21]: < 2 | Drug uptake [22]: 2.39 µL | Drug uptake [23]: 14% | fold change (FC) [24]: < 2 | Vmax [25]: 30.9 pmol | Vmax/Km [26]: 0.471 µL
Structure (SMILES): C[C@]12CC[C@@H]3c4ccc(OS(=O)(=O)O)cc4CC[C@H]3[C@@H]1CCC2=O [ESTRONE SULFURIC ACID]
